Measurements from patent US5840740A, “Aminosterol compounds and a method of treating infection using the aminosterol compounds” (priority 1995, dated 1998).
Counter-ions that a name gives are not always drawn.

Test system: chick embryo vitelline capillaries
Assay: Chick embryo vitelline capillary regression assay
Assay type: in vivo
Design: key to vascular reactivity (capillary regression): +: Vascular reactivity; 0: No vascular reactivity; +/-: Equivocal reactivity
Conditions: for Chick embryo diss. assay, Minimum Effective Concentration: Table II; for vascular reactivity (capillary regression): 60 min
Procedure: Using the chick embryo vitelline capillaries assay, compounds were tested for their ability to induce capillary regression. Each compound was applied in 0.1 ml of 15% Ficol 400 and PBS onto the embryo, and vascular regression was assessed after 60 minutes.
The 3-day chick embryo consists of an embryonic disc from which numerous vessels emerge and return, forming a "figure 8"-shaped structure--the embryo in the center with vascular loops extending outward over both poles. […] Following a lag period of around 15 minutes, the constriction of continuity between capillary and secondary vessels, generally on the "avenous" side, was observed. Continued pulsatile blood flow progressed, resulting in a "swelling" of the blind tube, followed by a pinching off of the remaining connection and formation of an enclosed vascular sac resembling a "blood island." This process progressed until only the largest vessels remained intact.

Structure (SMILES)	Chick embryo diss. assay, Minimum Effective Concentration	vascular reactivity (capillary regression) (1 μg applied)	other results
CC(C)CCC[C@@H](C)[C@H]1CC[C@H]2[C@@H]3CC[C@H]4C[C@H](NCCCNCCCCNCCCN)CC[C@]4(C)[C@H]3CC[C@]12C [Compound 354]	> 10 µg	–	–
CC(C)CCC[C@@H](C)[C@H]1CC[C@H]2[C@@H]3[C@H](O)C[C@H]4C[C@@H](N)CC[C@]4(C)[C@H]3CC[C@]12C [Compound 1364]	–	+	vascular reactivity (capillary regression) (0.001 μg applied): 0; vascular reactivity (capillary regression) (0.01 μg applied): 0; vascular reactivity (capillary regression) (0.1 μg applied): 0; vascular reactivity (capillary regression) (10 μg applied): +
CC(C)CCC[C@@H](C)[C@H]1CC[C@H]2[C@@H]3CC[C@H]4C[C@H](NCCCN5CCCCN=C5N)CC[C@]4(C)[C@H]3CC[C@]12C [Compound 393]	> 10 µg	–	–
COC(=O)CC[C@@H](C)[C@H]1CC[C@H]2[C@@H]3[C@H](O)C[C@H]4C[C@@H](NCCCNCCCCNCCCN)CC[C@]4(C)[C@H]3CC[C@]12C [Compound 396]	10 µg	+	vascular reactivity (capillary regression) (0.001 μg applied): 0; vascular reactivity (capillary regression) (0.01 μg applied): 0; vascular reactivity (capillary regression) (0.1 μg applied): 0
C[C@H](CCC(=O)O)[C@H]1CC[C@H]2[C@@H]3[C@H](O)C[C@H]4C[C@@H](NCCCNCCCCN)CC[C@]4(C)[C@H]3CC[C@]12C [Compound 381]	> 10 µg	0	–
COC(=O)CC[C@@H](C)[C@H]1CC[C@H]2[C@@H]3[C@H](O)C[C@H]4C[C@H](NCCCNCCCCN)CC[C@]4(C)[C@H]3CC[C@]12C [Compound 394]	> 10 µg	–	–
C[C@H](CCCOS(=O)(=O)O)[C@H]1CC[C@H]2[C@@H]3CC[C@H]4C[C@@H](NCCCNCCCCN)CC[C@]4(C)[C@H]3CC[C@]12C [Compound 399, 3β-N-1-{N[3-(4-Aminobutyl)]-1,3-diaminopropane}-24-hydroxy-5α-cholane 24-potassium sulfate]	> 10 µg	–	–
COC(=O)CC[C@@H](C)[C@H]1CC[C@H]2[C@@H]3CC[C@@H]4C[C@H](NCCCNCCCCNCCCN)CC[C@]4(C)[C@H]3C[C@H](O)[C@]12C [Compound 448]	1 µg	–	–
C[C@H](CCC(=O)O)[C@H]1CC[C@H]2[C@@H]3CC[C@@H]4C[C@H](NCCN)CC[C@]4(C)[C@H]3C[C@H](O)[C@]12C [Compound 417]	> 1 µg	–	–
C[C@H](CCC(=O)O)[C@H]1CC[C@H]2[C@@H]3CC[C@H]4C[C@H](NCCCNCCCCN)CC[C@]4(C)[C@H]3CC[C@]12C [Compound 318]	> 10 µg	0	–
COC(=O)CC[C@@H](C)[C@H]1CC[C@H]2[C@@H]3[C@H](O)C[C@H]4C[C@H](NCCCNCCCCNCCCN)CC[C@]4(C)[C@H]3CC[C@]12C [Compound 395]	> 10 µg	–	–
CC(C)CCC[C@@H](C)[C@H]1CC[C@H]2[C@@H]3CC[C@H]4C[C@@H](NCCCNCCCCN)CC[C@]4(C)[C@H]3CC[C@]12C [Compound 303]	> 10 µg	0	–
C[C@H](CCC(=O)O)[C@H]1CC[C@H]2[C@@H]3[C@H](O)C[C@@H]4C[C@@H](NCCN)CC[C@]4(C)[C@H]3CC[C@]12C [Compound 415]	> 1 µg	+	vascular reactivity (capillary regression) (0.001 μg applied): 0; vascular reactivity (capillary regression) (0.01 μg applied): +; vascular reactivity (capillary regression) (0.1 μg applied): +; effect on chick embryo vessels / blood (in words): especially active
